Test results taken from patent publication US6897215B1, “Compounds having 5-HT6 receptor antagonist activity” (NPS Allelix Corp., priority 1999, dated 2005).
Read-outs that look alike come from different tables or passages of the source.

Experiments:
[1] = biological target: T1, human 5-HT6 subtype of receptor (Homo sapiens, UniProt P50406); details: read-out: 5-HT6 receptor affinity (Ki); radioligand 3H-LSD, 60 minute incubation at 37° C.
[2] = biological target: T1, human 5-HT6 subtype of receptor; assay: biochemical
[3] = tested on: a number of other receptors including other serotonin receptors such as 5-HT1A and 5-HT7; assay: selectivity over other receptors; details: 5-HT6 versus other receptors incl. 5-HT1A and 5-HT7
[4] = biological target: T2, human 5-HT6 receptors (Homo sapiens, UniProt P50406); assay: functional adenylyl cyclase assay: cAMP accumulation in stably transfected HEK293 cells; assay type: cell-based; details: 1 uM serotonin
T2 construct: expressed in transfected cells; host or cells: HEK293 (stably transfected, G418 selection)
T2 sequence (P50406 whole entry): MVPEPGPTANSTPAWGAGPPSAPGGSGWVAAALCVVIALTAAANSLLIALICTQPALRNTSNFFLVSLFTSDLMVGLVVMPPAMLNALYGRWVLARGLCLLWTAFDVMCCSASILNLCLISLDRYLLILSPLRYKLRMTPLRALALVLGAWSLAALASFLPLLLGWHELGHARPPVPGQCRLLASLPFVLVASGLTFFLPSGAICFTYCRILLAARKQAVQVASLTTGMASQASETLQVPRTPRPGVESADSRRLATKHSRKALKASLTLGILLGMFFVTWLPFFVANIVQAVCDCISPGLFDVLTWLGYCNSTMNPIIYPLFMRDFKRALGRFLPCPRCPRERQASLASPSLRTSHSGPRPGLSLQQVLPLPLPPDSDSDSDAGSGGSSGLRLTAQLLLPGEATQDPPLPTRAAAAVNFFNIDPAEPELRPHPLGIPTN
Protocol: The antagonist property of the compounds at the human 5-HT6 receptors was determined by testing their effect on cAMP accumulation in stably transfected HEK293 cells. […] A compound that is an agonist will show an increase in cAMP production and a compound that is an antagonist will block the agonist effect Human 5-HT6 receptors were cloned and stably expressed in HEK293 cells. These cells were plated in 6 well plates in DMEM/F12 media with 10% fetal calf serum (FCS) and 500 ug/mL G418 and incubated at 37° C. in a CO2 incubator. The cells were allowed to grow to about 70% confluence before initiation of the experiment. On the day of the experiment, the culture media was removed, and the cells were washed once with serum free medium (SFM). Two mL of SFM+IBMX media was added and incubated at 37° C. for 10 min. […] The tubes were centrifuged for 5 min at 4° C., and the supernatants were stored at 4° C. until assayed. cAMP content was determined by EIA (enzyme-immunoassay) using the Amersham Biotrak cAMP EIA kit (Amersham RPN 225). […] Briefly, cAMP is determined by the competition between unlabeled cAMP and a fixed quantity of peroxidase-labelled cAMP for the binding sites on anti-cAMP antibody. […] The reaction is stopped by the addition of 100 uL 1.0 M sulphuric acid and the resultant color read by a microtitre plate spectrophotometer at 450 nM within 30 minutes.

T1 sequence (P50406 whole entry): as above

SMILES	Ki [1]	Ki [2]	selectivity over other receptors [3]	IC50 [4]	antagonist property at the 5-HT6 receptor [4]
O=S(=O)(c1cccc2ccccc12)n1ccc2ccc(C3CCN4CCCC4C3)cc21 [Example 5F (12), 6-[(7-R,S)(8a-R,S)-Octahydroindolizin-7-yl]-1-naphthylsulfonyl-indole]	0.8 nM	–	–	–	–
O=S(=O)(c1cccc2ccccc12)n1ccc2ccc(C3CCN4CCCC4C3)cc21 (single isomer, unassigned) [Example 5F (13)]	–	0.7 nM	–	–	–
O=S(=O)(c1cccc2ccccc12)n1ccc2ccc(N3CCN4CCCC4C3)cc21 (stereo not drawn) [Example 4a, 6-[6,5-Bicyclopiperazinyl]-1-[1-naphthylenesulphonyl]indole]	0.2 nM	–	good selectivity	7.2 nM	competitive antagonist
